Results published in patent publication US8815772B2, “Fungicidal heterocyclic carboxamides” (E I du Pont de Nemours and Company, priority 2012, dated 2014).
Marks after values point to notes of the source that are not given here.

Tests used:
[1] = tested on: Blumeria graminis f. sp. tritici; assay: Test H: wheat powdery mildew, preventive spray on wheat seedlings, visual disease rating
Text: General protocol for preparing test suspensions for Tests A-H: the test compounds were first dissolved in acetone in an amount equal to 3% of the final volume and then suspended at the desired concentration (in ppm) in acetone and purified water (50/50 mix by volume) containing 250 ppm of the surfactant Trem® 014 (polyhydric alcohol esters). The resulting test suspensions were then used in Tests A-H. Spraying a 200 ppm test suspension to the point of run-off on the test plants was the equivalent of a rate of 600 g/ha. Unless otherwise indicated, the rating values indicate a 200 ppm test suspension was used. (In Table A, an asterisk “*” next to the rating value indicates a 40 ppm test suspension was used; a double asterisk “**” next to the rating value indicates a 130 ppm.)
The test suspension was sprayed to the point of run-off on wheat seedlings. The following day the seedlings were inoculated with a spore dust of Blumeria graminis f. sp. tritici (also known as Erysiphe graminis f. sp. tritici, the causal agent of wheat powdery mildew) and incubated in a growth chamber at 20° C. for 8 days, after which time visual disease ratings were made.
(§2) An asterisk “*” next to the rating value indicates a 40 ppm test suspension was used, a double asterisk “**” next to the rating value indicates a 130 ppm test suspension was used.

[2] = tested on: Puccinia recondita f. sp. tritici; assay: Test G: wheat leaf rust, preventive spray on wheat seedlings, visual disease rating
Text: (§3) General protocol for preparing test suspensions for Tests A-H: the test compounds were first dissolved in acetone in an amount equal to 3% of the final volume and then suspended at the desired concentration (in ppm) in acetone and purified water (50/50 mix by volume) containing 250 ppm of the surfactant Trem® 014 (polyhydric alcohol esters). The resulting test suspensions were then used in Tests A-H. Spraying a 200 ppm test suspension to the point of run-off on the test plants was the equivalent of a rate of 600 g/ha. Unless otherwise indicated, the rating values indicate a 200 ppm test suspension was used.
The test suspension was sprayed to the point of run-off on wheat seedlings. The following day the seedlings were inoculated with a spore suspension of Puccinia recondita f. sp. tritici (the causal agent of wheat leaf rust) and incubated in a saturated atmosphere at 20° C. for 24 h, and then moved to a growth chamber at 20° C. for 6 days, after which time visual disease ratings were made.
as §2

Botrytis cinerea = assay: Test B: tomato botrytis, preventive spray on tomato seedlings, visual disease rating; conditions: for Test B rating (disease control): rating without asterisk, 100 = 100% disease control, 0 = no disease control relative to the controls
Text: as §3
The test suspension was sprayed to the point of run-off on tomato seedlings. The following day the seedlings were inoculated with a spore suspension of Botrytis cinerea (the causal agent of tomato botrytis) and incubated in saturated atmosphere at 20° C. for 48 h, and then moved to a growth chamber at 24-27° C. for 2-3 days, after which time visual disease ratings were made.
A dash (-) indicates no test results. An asterisk “*” next to the rating value indicates a 40 ppm test suspension was used, a double asterisk “**” next to the rating value indicates a 130 ppm test suspension was used.

Septoria nodorum = assay: Test E: Septoria glume blotch, preventive spray on wheat seedlings, visual disease rating; format: in vivo
Text: (§1) A dash (-) indicates no test results.

Septoria tritici = assay: Test F: wheat leaf blotch, preventive spray on wheat seedlings, visual disease rating; format: in vivo
Text: as §1

Phytophthora infestans = format: in vivo; conditions: rating without asterisk; 100 = 100% disease control, 0 = no disease control relative to the controls
cucumber seedlings = assay: Test I: phytotoxicity to the cucumber seedlings of the test units; format: in vivo; conditions: 250 ppm active ingredient applied to soil, 7 days
Protocol: Control of the southern root-knot nematode (Meloidogyne incognita) through contact and/or systemic means was evaluated in test units consisting of small open containers filled with a sandy soil mixture and cucumber seedlings.
Test compounds were formulated using a solution containing 50% acetone and 50% water. Test compounds were applied directly to the soil of the test units at concentrations of 250 or 50 ppm active ingredient. Each test was replicated 3 times. After treatment, the test units were allowed to dry for 1 h, after which time about 250 second-stage juvenile (J2) larvae were pipetted into the soil. The test units were held at 27° C. and watered as needed for 7 days.
Nematocidal efficacy was determined by the amount of root gall formation observed when compared to an untreated control. No gall formation was indicative of 100% nematode control. Gall formation equivalent to that found in the untreated control was indicative of 0% control. No nematode control rating was given to compounds showing significant phytotoxicity.

Alternaria solani = assay: Test C: tomato early blight, preventive spray on tomato seedlings, visual disease rating; format: in vivo; conditions: rating without asterisk; 100 = 100% disease control, 0 = no disease control relative to the controls
Text: as §1

Plasmopara viticola = assay: Test A: grape downy mildew, curative spray on grape seedlings, visual disease rating; format: in vivo; conditions: rating without asterisk; 100 = 100% disease control, 0 = no disease control relative to the controls
Text: Upon removal, visual disease ratings were made. […] A dash (-) indicates no test results.

[3] = rating without asterisk, 100 = 100% disease control, 0 = no disease control relative to the controls

Row | Compound | Test H rating (100 = 100% disease control, 0 = no disease control relative to the controls) ([1]; no asterisk: standard test suspension, wheat powdery mildew) [%] | Test G rating (100 = 100% disease control, 0 = no disease control relative to the controls) ([2]; no asterisk: standard test suspension, wheat leaf rust) [%] | Test B rating (100 = 100% disease control, 0 = no disease control relative to the controls) (Botrytis cinerea; no asterisk: standard test suspension, tomato botrytis) [%] | Test H rating (disease control) [1, 3] [%] | Test E rating (disease control) (Septoria nodorum; [3]) [%] | Test F rating (disease control) (Septoria tritici; [3]) [%] | Test G rating (disease control) [2, 3] [%] | Test B rating (disease control) (Botrytis cinerea) [%] | Test D rating (disease control) (Phytophthora infestans) [%] | phytotoxicity (cucumber seedlings) | Test C rating (disease control) (Alternaria solani) [%] | Test A rating (disease control) (Plasmopara viticola) [%] | Test H rating (disease control) ([1]; * 40 ppm test suspension) | Test E rating (disease control) (Septoria nodorum; * 40 ppm test suspension) | Test F rating (disease control) (Septoria tritici; * 40 ppm test suspension) | Test G rating (disease control) ([2]; * 40 ppm test suspension)
1 | 3-difluoromethyl)-N-[3′,5′-difluoro-4′-(1-methyl-1H-pyrazol-3-yl)[1,1′-biphenyl]-2-yl]-1-methyl-1H-pyrazole [Compound 232] | 97 | 100 | 81 |  |  |  |  |  |  |  |  |  |  |  |  | 
2 | CC(Cc1ccc(-n2ccc(C(F)(F)F)n2)cc1Cl)NC(=O)c1nccnc1Cl (stereo not drawn) [Compound 1] |  |  |  | 100 | 100 | 100 | 54 | 99 | 0 |  |  |  |  |  |  | 
3 | O=C(NCCc1ccc(-n2ccc(C(F)(F)F)n2)cc1)c1ccccc1C(F)(F)F [Compound 5, 2-(trifluoromethyl)-N-[2-[4-[3-(trifluoromethyl)-1H-pyrazol-1-yl]phenyl]ethyl]benzamide] |  |  |  | 96 | 0 | 100 | 0 | 17 | 0 | no significant phytotoxicity | 83 |  |  |  |  | 
4 | O=C(NCCc1ccc(-n2ccc(C(F)(F)F)n2)cc1Cl)c1ncccc1C(F)(F)F [Compound 40, N-[2-[2-chloro-4-[3-(trifluoromethyl)-1H-pyrazol-1-yl]phenyl]ethyl]-3-(trifluoromethyl)-2-pyridinecarboxamide] |  |  |  | 100 | 100 | 100 | 0 | 66 | 0 | no significant phytotoxicity |  |  |  |  |  | 
5 | O=C(NCCc1ncc(-n2ccc(C(F)(F)F)n2)cc1Cl)c1ccccc1C(F)(F)F [Compound 85, N-[2-[3-chloro-5-[(3-trifluoromethyl)-1H-pyrazol-1-yl]-2-pyridinyl]ethyl]-2-(trifluoromethyl)benzamide] |  |  |  | 100 | 100 | 100 | 0 | 95 | 0 |  |  | 0 |  |  |  | 
6 | O=C(NCC(F)(F)c1ccc(-n2ccc(C(F)(F)F)n2)cc1Cl)c1ncccc1C(F)(F)F [Compound 150, N-[2-[2-chloro-4-[3-(trifluoromethyl)-1H-pyrazol-1-yl]phenyl]-2,2-difluoroethyl]-3-(trifluoromethyl)-2-pyridinecarboxamide] |  |  |  |  |  |  |  |  |  | no significant phytotoxicity |  |  | 100* % | 100* % | 100* % | 0* %
7 | O=C(Nc1ccccc1-c1cc(F)c(-n2ccc(C(F)(F)F)n2)c(F)c1)c1cccnc1Cl [Compound 170, 2-chloro-N-[3′,5′-difluoro-4′-[3-(trifluoromethyl)-1H-pyrazol-1-yl][1,1′-biphenyl]-2-yl]-3-pyridinecarboxamide] |  |  |  | 100 | 0 | 100 | 100 | 0 | 0 |  |  | 0 |  |  |  | 
8 | O=C(Nc1ccccc1-c1cc(F)c(-n2ccc(C(F)(F)F)n2)c(F)c1)c1ncccc1C(F)(F)F [Compound 172, N-[3′,5′-difluoro-4′-[3-(trifluoromethyl)-1H-pyrazol-yl][1,1′-biphenyl]-2-yl]-3-(trifluoromethyl)-2-pyridinecarboxamide] |  |  |  | 100 | 100 | 100 | 100 | 65 | 0 |  |  | 0 |  |  |  | 
9 | Cn1cc(C(=O)Nc2ccccc2-c2cc(F)c(-n3ccc(C(F)(F)F)n3)c(F)c2)c(C(F)F)n1 [Compound 173, 3-(difluoromethyl)-N-[3′,5′-difluoro-4′-[3-(trifluoromethyl)-1H-pyrazol-1-yl][1,1′-biphenyl]-2-yl]-1-methyl-1H-pyrazole-4-carboxamide] |  |  |  | 100 | 100 | 100 | 100 | 72 | 0 |  |  | 0 |  |  |  | 
